# Results as given in patent US9499550B2 (BRISTOL-MYERS SQUIBB COMPANY, priority 2012, dated 2016).
# Read-outs that look alike come from different tables or passages of the source.
# How the values were obtained:
# [1] = system: HCV genotype 1a (H77 strain) replicon in HUH-7 cells; test: HCV replicon luciferase reporter assay, genotype 1a; type: cell-based; conditions: Hepatitis C virus, Huh-7, 72 h, 3 days incubation
# Procedure, shortened: (§1)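 Replicon inhibition for both genotypes was measured as Renilla luciferase signal (EnduRen, 7.5 μM final, 2 h) after 3-day, 37° C exposure of replicon-bearing HUH-7 cells in 4% FCS DMEM, 0.5% DMSO. The 1b construct carries S1179I; the 1a H77 construct carries P1496L and S2204I. Twenty-point, 3-fold dilutions were fitted four-parametrically for EC50, and CC50 was taken from multiplexed Cell Titer-Blue.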
# [2] = system: HCV genotype 1b (Con1) replicon in HUH-7 cells; test: HCV replicon luciferase reporter assay, genotype 1b; type: cell-based; conditions: Hepatitis C virus, Huh-7, 72 h, 3 days incubation
# Procedure, shortened: as §1
# [3] = HCV genotype 1a replicon luciferase assay, range class, read-out: LE_1a (EC50, range)
# [4] = HCV genotype 1b replicon luciferase assay, range class, read-out: LE_1b (EC50, range)
# [5] = HCV genotype 1a replicon luciferase, read-out: LE_1a (EC50, range)
# [6] = HCV genotype 1b replicon luciferase, read-out: LE_1b (EC50, range)
# [7] = GETYPE1A, HCV genotype 1a replicon luciferase, read-out: LE_1a (EC50, range)
# [8] = GETYPE1B, HCV genotype 1b replicon luciferase, read-out: LE_1b (EC50, range)
Structure (SMILES),"EC50 [1, 3] [nM]","EC50 [2, 4] [nM]","EC50 [1, 5] [nM]","EC50 [2, 6] [nM]",further results
"CCCOc1cc2c(Cl)cccc2c(O[C@@H]2C[C@H]3C(=O)N[C@]4(C(=O)NS(=O)(=O)C5(C)CC5)C[C@H]4/C=C\CC[C@H](C)C[C@@H](C)[C@H](NC(=O)OC(C)(C)C)C(=O)N3C2)n1 [Compound 1071, tert-butyl ((2R,6S,7R,9S,13aS,14aR,16aS,Z)-2-((5-chloro-3-propoxyisoquinolin-1-yl)oxy)-7,9-dimethyl-14a-(((1-methylcyclopropyl)sulfonyl)carbamoyl)-5,16-dioxo-1,2,3,5,6,7,8,9,10,11,13a,14,14a,15,16,16a-hexadecahydrocyclopropa[e]pyrrolo[1,2-a][1,4]diazacyclopentadecin-6-yl)carbamate]",< 5.46,< 5.46,,,
"COc1cc(F)cc2c(O[C@@H]3C[C@H]4C(=O)N[C@]5(C(=O)NS(=O)(=O)C6(CF)CC6)C[C@H]5/C=C\CC[C@H](C)C[C@@H](C)[C@H](NC(=O)OC(C)(C)C)C(=O)N4C3)nccc12 [Compound 3173, tert-butyl ((2R,6S,7R,9S,13aS,14aR,16aS,Z)-2-((7-fluoro-5-methoxyisoquinolin-1-yl)oxy)-14a-(((1-(fluoromethyl)cyclopropyl)sulfonyl)carbamoyl)-7,9-dimethyl-5,16-dioxo-1,2,3,5,6,7,8,9,10,11,13a,14,14a,15,16,16a-hexadecahydrocyclopropa[e]pyrrolo[1,2-a][1,4]diazacyclopentadecin-6-yl)carbamate]",4.82 to 103,4.82 to 103,,,
"CCOc1cnc(O[C@@H]2C[C@H]3C(=O)N[C@]4(C(=O)NS(=O)(=O)C5CC5)C[C@H]4/C=C\CC[C@@H](C)C[C@@H](C)[C@H](NC(=O)OC(C)(C)C(F)(F)F)C(=O)N3C2)c2ccccc12 [Compound 18, 1,1,1-trifluoro-2-methylpropan-2-yl((2R,6S,7R,9R,13aS,14aR,16aS,Z)-14a-((cyclopropylsulfonyl)carbamoyl)-2-((4-ethoxyisoquinolin-1-yl)oxy)-7,9-dimethyl-5,16-dioxo-1,2,3,5,6,7,8,9,10,11,13a,14,14a,15,16,16a-hexadecahydrocyclopropa[e]pyrrolo[1,2-a][1,4]diazacyclopentadecin-6-yl)carbamate]",< 5.46,< 5.46,,,
"CC[C@@H]1C[C@H](C)CC/C=C\[C@@H]2C[C@@]2(C(=O)NS(=O)(=O)C2CC2)NC(=O)[C@@H]2C[C@@H](Oc3nc4cc(OC)c(F)cc4nc3O)CN2C(=O)[C@H]1NC(=O)OC(C)(C)C [Compound 4265, tert-butyl ((2R,6S,7R,9R,13aS,14aR,16aS,Z)-14a-((cyclopropylsulfonyl)carbamoyl)-7-ethyl-2-((6-fluoro-3-hydroxy-7-methoxyquinoxalin-2-yl)oxy)-9-methyl-5,16-dioxo-1,2,3,5,6,7,8,9,10,11,13a,14,14a,15,16,16a-hexadecahydrocyclopropa[e]pyrrolo[1,2-a][1,4]diazacyclopentadecin-6-yl)carbamate]",,,35 to 620,35 to 620,"EC50 ([1]; HCV genotype 1a replicon luciferase, read-out: LE_1a (EC50)): 616 nM; EC50 ([2]; HCV genotype 1b replicon luciferase, read-out: LE_1b (EC50)): 475 nM"
"CC(C)Oc1cc2c(Cl)cccc2c(O[C@@H]2C[C@H]3C(=O)N[C@]4(C(=O)NS(=O)(=O)C5(C)CC5)C[C@H]4/C=C\CC[C@H](C)C[C@@H](C)[C@H](NC(=O)OC(C)(C)C(C)(F)F)C(=O)N3C2)n1 [Compound 1103, 3,3-difluoro-2-methylbutan-2-yl((2R,6S,7R,9S,13aS,14aR,16aS,Z)-2-((5-chloro-3-isopropoxyisoquinolin-1-yl)oxy)-7,9-dimethyl-14a-(((1-methylcyclopropyl)sulfonyl)carbamoyl)-5,16-dioxo-1,2,3,5,6,7,8,9,10,11,13a,14,14a,15,16,16a-hexadecahydrocyclopropa[e]pyrrolo[1,2-a][1,4]diazacyclopentadecin-6-yl)carbamate]",4.82 to 103,< 5.46,,,
"CC[C@@H]1C[C@H](C)CC/C=C\[C@@H]2C[C@@]2(C(=O)NS(=O)(=O)C2(CF)CC2)NC(=O)[C@@H]2C[C@@H](Oc3nc4c(c5ccccc35)CCCO4)CN2C(=O)[C@H]1NC(=O)OC(C)(C)C(F)F [Compound 6072, 1,1-difluoro-2-methylpropan-2-yl((2R,6S,7R,9R,13aS,14aR,16aS,Z)-2-((2,3-dihydro-1H-pyrano[2,3-c]isoquinolin-6-yl)oxy)-7-ethyl-14a-(((1-(fluoromethyl)cyclopropyl)sulfonyl)carbamoyl)-9-methyl-5,16-dioxo-1,2,3,5,6,7,8,9,10,11,13a,14,14a,15,16,16a-hexadecahydrocyclopropa[e]pyrrolo[1,2-a][1,4]diazacyclopentadecin-6-yl)carbamate]",,,1.01 to 5,0.51 to 1,
"COCCOc1cnc(O[C@@H]2C[C@H]3C(=O)N[C@]4(C(=O)NS(=O)(=O)C5CC5)C[C@H]4/C=C\CC[C@@H](C)C[C@@H](C)[C@H](NC(=O)OC(C)(C)C)C(=O)N3C2)c2ccc(OC)cc12 [Compound 1155, tert-butyl ((2R,6S,7R,9R,13aS,14aR,16aS,Z)-14a-((cyclopropylsulfonyl)carbamoyl)-2-((6-methoxy-4-(2-methoxyethoxyl)isoquinolin-1-yl)oxy)-7,9-dimethyl-5,16-dioxo-1,2,3,5,6,7,8,9,10,11,13a,14,14a,15,16,16a-hexadecahydrocyclopropa[e]pyrrolo[1,2-a][1,4]diazacyclopentadecin-6-yl)carbamate]",< 5.46,< 5.46,,,
"COc1cnc(O[C@@H]2C[C@H]3C(=O)N[C@]4(C(=O)NS(=O)(=O)C5(CF)CC5)C[C@H]4/C=C\CC[C@H](C)C[C@@H](C)[C@H](NC(=O)OC(C)(C)C(F)(F)F)C(=O)N3C2)c2ccc(N(C)C)cc12 [Compound 3143, 1,1,1-trifluoro-2-methylpropan-2-yl((2R,6S,7R,9S,13aS,14aR,16aS,Z)-2-((6-(dimethylamino)-4-methoxyisoquinolin-1-yl)oxy)-14a-(((1-(fluoromethyl)cyclopropyl)sulfonyl)carbamoyl)-7,9-dimethyl-5,16-dioxo-1,2,3,5,6,7,8,9,10,11,13a,14,14a,15,16,16a-hexadecahydrocyclopropa[e]pyrrolo[1,2-a][1,4]diazacyclopentadecin-6-yl)carbamate]",< 5.46,< 5.46,,,
"C[C@@H]1CC/C=C\[C@@H]2C[C@@]2(C(=O)NS(=O)(=O)C2(C)CC2)NC(=O)[C@@H]2C[C@@H](Oc3ncc(OCC(F)F)c4ccccc34)CN2C(=O)[C@@H](NC(=O)O[C@H](C)C(F)(F)F)[C@H](C)C1 [Compound 1036, (R)-1,1,1-trifluoropropan-2-yl ((2R,6S,7R,9R,13aS,14aR,16aS,Z)-2-((4-(2,2-difluoroethoxyl)isoquinolin-1-yl)oxy)-7,9-dimethyl-14a-(((1-methylcyclopropyl)sulfonyl)carbamoyl)-5,16-dioxo-1,2,3,5,6,7,8,9,10,11,13a,14,14a,15,16,16a-hexadecahydrocyclopropa[e]pyrrolo[1,2-a][1,4]diazacyclopentadecin-6-yl)carbamate]",< 5.46,< 5.46,,,
"CC[C@@H]1C[C@@H](C)CC/C=C\[C@@H]2C[C@@]2(C(=O)NS(=O)(=O)C2CC2)NC(=O)[C@@H]2C[C@@H](Oc3nccc4c5c(ccc34)N(C)CCO5)CN2C(=O)[C@H]1NC(=O)OC(C)(C)C [Compound 5307, tert-butyl ((2R,6S,7R,9S,13aS,14aR,16aS,Z)-14a-((cyclopropylsulfonyl)carbamoyl)-7-ethyl-9-methyl-2-((4-methyl-3,4-dihydro-2H-[1,4]oxazino[2,3-f]isoquinolin-7-yl)oxy)-5,16-dioxo-1,2,3,5,6,7,8,9,10,11,13a,14,14a,15,16,16a-hexadecahydrocyclopropa[e]pyrrolo[1,2-a][1,4]diazacyclopentadecin-6-yl)carbamate]",,,4.82 to 103,< 5.46,
CCOc1ccc2nc(C(F)(F)F)c(O[C@@H]3C[C@H]4C(=O)N[C@]5(C(=O)NS(=O)(=O)C6(C)CC6)C[C@H]5/C=C\CC[C@@H](C)C[C@@H](C)[C@H](NC(=O)OC(C)(C)C(F)(F)F)C(=O)N4C3)nc2c1 [Compound 4348],,,,,"EC50 [1, 7]: 0.51 to 1 nM; EC50 [2, 8]: 0.1 to 0.5 nM"
"CC[C@@H]1C[C@H](C)CC/C=C\[C@@H]2C[C@@]2(C(=O)NS(=O)(=O)C2(C)CC2)NC(=O)[C@@H]2C[C@@H](Oc3ncc(OC)c4ccc(F)cc34)CN2C(=O)[C@H]1NC(=O)OC(C)(C)C(C)(F)F [Compound 5455, 3,3-difluoro-2-methylbutan-2-yl((2R,6S,7R,9R,13aS,14aR,16aS,Z)-7-ethyl-2-((7-fluoro-4-methoxyisoquinolin-1-yl)oxy)-9-methyl-14a-(((1-methylcyclopropyl)sulfonyl)carbamoyl)-5,16-dioxo-1,2,3,5,6,7,8,9,10,11,13a,14,14a,15,16,16a-hexadecahydrocyclopropa[e]pyrrolo[1,2-a][1,4]diazacyclopentadecin-6-yl)carbamate]",,,1.01 to 5,0.1 to 0.5,
CC[C@@H]1C[C@H](C)CC/C=C\[C@@H]2C[C@@]2(C(=O)NS(=O)(=O)C2CC2)NC(=O)[C@@H]2C[C@@H](Oc3ncc(OC)c4c(Cl)cccc34)CN2C(=O)[C@H]1NC(=O)OC(C)(C)C(F)(F)F [Compound 4252],,,,,"EC50 [1, 7]: 1.01 to 5 nM; EC50 [2, 8]: 0.51 to 1 nM"
COc1ccc2c(O[C@@H]3C[C@H]4C(=O)N[C@]5(C(=O)NS(=O)(=O)C6(CF)CC6)C[C@H]5/C=C\CC[C@@H](C)C[C@@H](C)[C@H](NC(=O)OC(C)(C)C(F)(F)F)C(=O)N4C3)ncc(N3CCOCC3)c2c1 [Compound 4120],,,< 5.46,< 5.46,
